Blank lines part the entries; values can stand above or below the molecule they belong to.
Legend:
Format in all cases: biochemical
ATGL = biological target: T1, ATGL (Mus musculus, UniProt Q8BJ56); experiment: TG hydrolase activity assay, cytosolic fractions of HepG2 cells infected with adenovirus coding for His-tagged ATGL, radiolabeled triolein substrate
T1 construct: a recombinant adenovirus encoding the His-tagged full length mouse ATGL cDNA was constructed; expressed in transfected cells; host or cells: HepG2 cells infected with recombinant adenovirus; cytosolic fraction
T1 sequence (Q8BJ56 1-486): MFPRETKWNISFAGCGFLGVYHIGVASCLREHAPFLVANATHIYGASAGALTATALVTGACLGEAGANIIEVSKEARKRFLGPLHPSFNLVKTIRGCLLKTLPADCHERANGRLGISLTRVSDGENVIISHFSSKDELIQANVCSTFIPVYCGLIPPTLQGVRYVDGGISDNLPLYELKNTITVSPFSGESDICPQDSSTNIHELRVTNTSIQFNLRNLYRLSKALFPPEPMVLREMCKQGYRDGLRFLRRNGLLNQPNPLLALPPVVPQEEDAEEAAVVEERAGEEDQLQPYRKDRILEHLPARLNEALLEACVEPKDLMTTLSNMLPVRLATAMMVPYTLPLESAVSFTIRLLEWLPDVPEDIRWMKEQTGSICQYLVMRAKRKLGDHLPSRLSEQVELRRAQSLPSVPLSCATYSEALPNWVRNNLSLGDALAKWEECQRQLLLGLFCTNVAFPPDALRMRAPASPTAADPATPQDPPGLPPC
Method: (§1) Neutral TG lipase activity was measured with triolein as substrate containing [9,10-3H(N)]-triolein (NEN Life Science Products) as radioactive tracer. The substrate for TG lipase activity was prepared by sonication (Virsonic 475) exactly as describeded by Holm et al. (30). Cells were disrupted on ice in lysis buffer (0.25 M sucrose, 1 mM EDTA, 1 mM dithiothreitol, 20 μg/ml leupeptin, 2 μg/ml antipain, 1 μg/ml pepstatin, pH 7) by sonication (Virsonic 475). The cytosolic infranatants were obtained after centrifugation at […], at 4° C. for 60 min. The reaction was performed in a water bath at 37° C. for 60 min with 0.1 ml substrate and 0.1 ml infranatant. The reaction was terminated by adding 3.25 ml of methanol/chloroform/heptane (10:9:7) and 1 ml of 0.1 M potassium carbonate, 0.1 M boric acid, pH 10.5. After centrifugation (800 g, 20 min) the radioactivity in 1 ml of the upper phase was determined by liquid scintillation counting.
A recombinant adenovirus coding for His-tagged ATGL or HSL was used to infect HepG2 cells as described above. For activity assays, the cytosolic fractions of the cells were incubated with a substrate containing radiolabeled triolein in the absence (control) or in the presence of 50 μg/ml orlistat. It can be seen from FIG. 4 that addition of orlistat decreased in ATGL activity by 98%. […]

HSL = biological target: T2, HSL (Mus musculus, UniProt P54310); experiment: TG hydrolase activity assay, cytosolic fractions of HepG2 cells infected with adenovirus coding for His-tagged HSL, radiolabeled triolein substrate; conditions: 1M KCl vs absence (control), FIG. 5
T2 construct: His-tag; expressed in transfected cells; host or cells: HepG2 cells infected with recombinant adenovirus; cytosolic fraction
T2 sequence (P54310 1-759): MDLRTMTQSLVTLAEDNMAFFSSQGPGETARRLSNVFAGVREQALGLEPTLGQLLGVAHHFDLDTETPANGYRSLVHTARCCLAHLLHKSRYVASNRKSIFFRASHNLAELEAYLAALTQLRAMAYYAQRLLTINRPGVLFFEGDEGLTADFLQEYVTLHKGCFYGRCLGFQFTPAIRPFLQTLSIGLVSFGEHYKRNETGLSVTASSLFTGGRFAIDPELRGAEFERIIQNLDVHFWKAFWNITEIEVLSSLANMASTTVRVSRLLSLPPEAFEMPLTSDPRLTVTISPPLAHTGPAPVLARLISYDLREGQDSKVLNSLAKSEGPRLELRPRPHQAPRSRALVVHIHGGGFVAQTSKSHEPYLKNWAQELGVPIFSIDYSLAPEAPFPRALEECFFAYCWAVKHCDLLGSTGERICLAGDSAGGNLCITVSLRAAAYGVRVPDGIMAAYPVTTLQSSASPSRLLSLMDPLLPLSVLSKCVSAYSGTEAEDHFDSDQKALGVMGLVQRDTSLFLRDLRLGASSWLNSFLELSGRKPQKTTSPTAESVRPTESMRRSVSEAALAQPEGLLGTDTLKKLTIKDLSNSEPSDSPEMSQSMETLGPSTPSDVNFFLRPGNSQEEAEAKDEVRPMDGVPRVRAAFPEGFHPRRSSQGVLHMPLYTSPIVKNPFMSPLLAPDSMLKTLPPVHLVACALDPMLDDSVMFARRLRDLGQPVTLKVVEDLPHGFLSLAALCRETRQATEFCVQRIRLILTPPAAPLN
Method: as §1
A recombinant adenovirus coding for His-tagged ATGL or HSL was used to infect HepG2 cells. The infection led to a 7- and 12-fold increase in TG hydrolase activity for HSL and ATGL, respectively, compared to LacZ-infected cells. For activity assays, the cytosolic fractions of the cells were incubated with a substrate containing radiolabeled triolein in the absence (control) or in the presence of the indicated salt concentrations.

human ATGL (hATGL) = biological target: T3, human ATGL (hATGL) (Homo sapiens, UniProt Q96AD5); experiment: TGH activity assay of hATGL with hCGI-58 expressed in COS-7 cells; conditions: human proteins; dose-dependent; FIG. 6f
T3 construct: The PCR products, containing the complete open reading frame, were ligated; expressed in transfected cells; host or cells: COS-7, transient transfection; cytoplasmic extracts
T3 sequence (Q96AD5 2-504): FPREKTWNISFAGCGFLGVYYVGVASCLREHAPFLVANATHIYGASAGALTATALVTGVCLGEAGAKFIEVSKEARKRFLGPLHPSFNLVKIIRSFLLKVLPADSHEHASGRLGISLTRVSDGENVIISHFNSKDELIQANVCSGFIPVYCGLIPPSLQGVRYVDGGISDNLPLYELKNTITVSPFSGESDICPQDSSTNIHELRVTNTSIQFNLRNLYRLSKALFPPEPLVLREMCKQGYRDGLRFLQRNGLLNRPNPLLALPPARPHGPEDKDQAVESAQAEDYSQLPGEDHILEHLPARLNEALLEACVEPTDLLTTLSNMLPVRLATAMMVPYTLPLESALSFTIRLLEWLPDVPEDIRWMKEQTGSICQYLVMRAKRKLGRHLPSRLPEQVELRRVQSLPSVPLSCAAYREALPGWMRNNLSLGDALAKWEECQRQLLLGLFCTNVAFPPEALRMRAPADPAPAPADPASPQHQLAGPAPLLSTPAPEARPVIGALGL
T3 sequence (Q8WTS1 1-349 partner): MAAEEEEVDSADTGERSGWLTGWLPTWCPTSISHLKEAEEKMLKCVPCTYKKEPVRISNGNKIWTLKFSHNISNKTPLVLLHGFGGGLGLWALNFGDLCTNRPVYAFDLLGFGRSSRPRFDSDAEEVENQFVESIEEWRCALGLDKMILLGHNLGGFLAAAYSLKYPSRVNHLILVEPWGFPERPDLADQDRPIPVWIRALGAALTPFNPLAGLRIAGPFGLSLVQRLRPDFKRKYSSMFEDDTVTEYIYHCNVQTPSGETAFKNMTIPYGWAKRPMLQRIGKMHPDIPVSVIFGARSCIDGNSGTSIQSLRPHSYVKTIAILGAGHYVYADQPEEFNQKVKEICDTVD
Description: In comparison, transfection of cells with ATGL and HSL increased TGH activities 4- and 9-fold, respectively. In order to investigate whether the effect of CGI-58 is due to endogenous TGH activity of CGI-58 or if the protein affects the activity of other lipases, the extracts of CGI-58 and ATGL or HSL-expressing cells were mixed together and subjected to TGH activity determinations (FIG. 6c). […] The activation of ATGL by CGI-58 could also be monitored on the molecular level using the fluorescently labeled lipase-inhibitor NBD-snl TG. By mimicking a TG molecule, this inhibitor covalently binds to active lipases. […]
Expression ofrecombinant proteins in cultured cells for CGI-58 investigations—Monkey embryonic kidney cells (COS-7, ATCC CRL-1651) were maintained in Dulbecco's minimal essential medium (DMEM) (Gibco, Invitrogen life technologies, Carlsbad, Calif.) containing 10% fetal calf serum (FCS) (Sigma-Aldrich Chemie GmbH) and antibiotics at 37° C. in humidified air (89-91% saturation) and 5% C02. […] Cells were analyzed two days after transfection.
FIG. 6. […] (a) His-tagged proteins were detected in cytoplasmic extracts of transfected cells by Western blotting using a monoclonal anti-His antibody. (b) TGH activity of cytoplasmic extracts of transfected cells was determined using a radiolabeled triolein substrate. […] The molar ratio ATGL/CGI-58 was determined as described in (d).

Molecule: [Cl-].[K+] [KCl, potassium chloride]
- change in ATGL activity (stimulated) (ATGL; 1M KCl vs absence (control), FIG. 5): +84%
- change in HSL activity (HSL): −68%

Molecule: CCCCCCCCCCC[C@@H](C[C@@H]1OC(=O)[C@H]1CCCCCC)OC(=O)[C@H](CC(C)C)NC=O [orlistat]
- decrease in ATGL activity (ATGL; 50 μg/ml orlistat vs absence (control), FIG. 4): 98%

- magnitude of the maximal effect on ATGL activation (human ATGL (hATGL)): 6 fold
B1: hCGI-58: human CGI-58 expressed in COS-7 cells (protein, UniProt Q8WTS1 2-349, looked up)
1-acylglycerol-3-phosphate …: AAEEEEVDSADTGERSGWLTGWLPTWCPTSISHLKEAEEKMLKCVPCTYKKEPVRISNGNKIWTLKFSHNISNKTPLVLLHGFGGGLGLWALNFGDLCTNRPVYAFDLLGFGRSSRPRFDSDAEEVENQFVESIEEWRCALGLDKMILLGHNLGGFLAAAYSLKYPSRVNHLILVEPWGFPERPDLADQDRPIPVWIRALGAALTPFNPLAGLRIAGPFGLSLVQRLRPDFKRKYSSMFEDDTVTEYIYHCNVQTPSGETAFKNMTIPYGWAKRPMLQRIGKMHPDIPVSVIFGARSCIDGNSGTSIQSLRPHSYVKTIAILGAGHYVYADQPEEFNQKVKEICDTVD
